≈ marks a conversion by molar mass, not a printed value.
Columns and labels:
Assay type in all cases: functional
Escherichia coli = experiment: Antibacterial activity against Escherichia coli
Pseudomonas aeruginosa = experiment: Antibacterial activity against Pseudomonas aeruginosa
Klebsiella pneumoniae = experiment: Antibacterial activity against Klebsiella pneumoniae
Candida [1] = experiment: Antifungal activity against Candida 6
Aspergillus niger = experiment: Antifungal activity against Aspergillus niger
Candida [2] = experiment: Antifungal activity against Candida 51
Bacillus subtilis = experiment: Antibacterial activity against Bacillus subtilis
Aspergillus flavus = experiment: Antifungal activity against Aspergillus flavus
Enterococcus faecalis = experiment: Antibacterial activity against Streptococcus faecalis
Cryptococcus neoformans = experiment: Antifungal activity against Cryptococcus neoformans

MIC (Escherichia coli) [µg/mL]	MIC (Pseudomonas aeruginosa) [µg/mL]	MIC (Klebsiella pneumoniae) [µg/mL]	MIC (Candida [1]) [µg/mL]	MIC (Aspergillus niger) [µg/mL]	MIC (Candida [2]) [µg/mL]	MIC (Bacillus subtilis) [µg/mL]	MIC (Aspergillus flavus) [µg/mL]	MIC (Enterococcus faecalis) [µg/mL]	MIC (Cryptococcus neoformans) [µg/mL]	SMILES
12.5 (≈ 38.9 µM)	25 (≈ 77.8 µM)	12.5 (≈ 38.9 µM)	25 (≈ 77.8 µM)	50 (≈ 156 µM)	25 (≈ 77.8 µM)	50 (≈ 156 µM)	50 (≈ 156 µM)	12.5 (≈ 38.9 µM)	25 (≈ 77.8 µM)	O=C1CC(c2ccco2)NC(c2ccco2)C1Cc1ccccc1 (stereo not drawn)
12.5 (≈ 37.2 µM)	12.5 (≈ 37.2 µM)	6.25 (≈ 18.6 µM)	25 (≈ 74.3 µM)	6.25 (≈ 18.6 µM)	12.5 (≈ 37.2 µM)	25 (≈ 74.3 µM)	25 (≈ 74.3 µM)	12.5 (≈ 37.2 µM)	6.25 (≈ 18.6 µM)	O/N=C1\CC(c2ccco2)NC(c2ccco2)C1Cc1ccccc1 (stereo not drawn)
12.5 (≈ 36.6 µM)		100 (≈ 293 µM)	50 (≈ 146 µM)	100 (≈ 293 µM)	50 (≈ 146 µM)	12.5 (≈ 36.6 µM)	50 (≈ 146 µM)	50 (≈ 146 µM)		O=C1CC(c2ccccc2)NC(c2ccccc2)C1Cc1ccccc1 (stereo not drawn)
12.5 (≈ 35.1 µM)	25 (≈ 70.1 µM)	12.5 (≈ 35.1 µM)	50 (≈ 140 µM)	100 (≈ 281 µM)	12.5 (≈ 35.1 µM)	25 (≈ 70.1 µM)	50 (≈ 140 µM)	25 (≈ 70.1 µM)	25 (≈ 70.1 µM)	O/N=C1\CC(c2ccccc2)NC(c2ccccc2)C1Cc1ccccc1 (stereo not drawn)
25 (≈ 67.7 µM)	12.5 (≈ 33.8 µM)	6.25 (≈ 16.9 µM)	25 (≈ 67.7 µM)	50 (≈ 135 µM)	12.5 (≈ 33.8 µM)	25 (≈ 67.7 µM)	25 (≈ 67.7 µM)	25 (≈ 67.7 µM)	12.5 (≈ 33.8 µM)	O=CN1C(c2ccccc2)CC(=O)C(Cc2ccccc2)C1c1ccccc1 (stereo not drawn)
25 (≈ 65 µM)	50 (≈ 130 µM)	6.25 (≈ 16.3 µM)	12.5 (≈ 32.5 µM)	25 (≈ 65 µM)	12.5 (≈ 32.5 µM)	25 (≈ 65 µM)	12.5 (≈ 32.5 µM)	25 (≈ 65 µM)	6.25 (≈ 16.3 µM)	O=CN1C(c2ccccc2)C/C(=N\O)C(Cc2ccccc2)C1c1ccccc1 (stereo not drawn)

SMILES	MIC (Escherichia coli) [µg/mL]	MIC (Pseudomonas aeruginosa) [µg/mL]	MIC (Klebsiella pneumoniae) [µg/mL]	MIC (Candida [1]) [µg/mL]	MIC (Aspergillus niger) [µg/mL]	MIC (Candida [2]) [µg/mL]	MIC (Bacillus subtilis) [µg/mL]	MIC (Aspergillus flavus) [µg/mL]	MIC (Enterococcus faecalis) [µg/mL]	MIC (Cryptococcus neoformans) [µg/mL]
C[C@@H]1[C@H](O)[C@@H](C)/C=C/C=C/C=C/C=C/C=C/C=C/C=C/[C@H](O[C@@H]2O[C@H](C)[C@@H](O)[C@H](N)[C@@H]2O)C[C@@H]2O[C@](O)(C[C@@H](O)C[C@@H](O)[C@H](O)CC[C@@H](O)C[C@@H](O)CC(=O)O[C@H]1C)C[C@H](O)[C@H]2C(=O)O [AMPHOTERICIN B]				25 (≈ 27.1 µM)	50 (≈ 54.1 µM)	25 (≈ 27.1 µM)		50 (≈ 54.1 µM)		25 (≈ 27.1 µM)
CN[C@@H]1[C@H](O[C@H]2[C@H](O[C@H]3[C@H](O)[C@@H](O)[C@H](N=C(N)N)[C@@H](O)[C@@H]3N=C(N)N)O[C@@H](C)[C@]2(O)C=O)O[C@@H](CO)[C@H](O)[C@H]1O [STREPTOMYCIN]	12.5 (≈ 21.5 µM)	25 (≈ 43 µM)	25 (≈ 43 µM)				12.5 (≈ 21.5 µM)		50 (≈ 86 µM)	
